The target of the experiment is thrombin (Homo sapiens, UniProt P00734). As to the kind of experiment: Fibrinogen clotting assay catalyzed by thrombin. The format is biochemical. The following applies: for IC50: concentration needed to double the clotting time. The procedure:
Curves represent OD420 time course after the addition of 0.6 nM thrombin in the presence of (♦) 0 nM; (◯) 0.5 nM; (□) 1 nM; (Δ) 1.5 nM; (⋄) 2.5 nM; (●) 3.75 nM; (▪) 6.25 nM; and (▴) […] of the inhibitor with linker (GS)n and n=2 (SEQ. ID. NO. 50) (a); n=4 (SEQ. ID. NO. 51) (b); n=6 (SEQ. ID. NO. 52) (c); n=8 (SEQ. ID. NO. 53) (d); n=10 (SEQ. ID. NO. 54) (e); and in the presence of (♦) 0 nM; (◯) 1 nM; (□) 2 nM; (Δ) 4 nM; (⋄) 6 nM; (●) 10 nM; (▪) 15 nM; and (▴) 25 nM of the inhibitor with linker (GS)n and n=12 (SEQ. ID. NO. 55) (f); n=14 (SEQ. ID. NO. 56) (g), at 37° C. The onset clotting time was determined as an intersection of the baseline and the extrapolated linear portion of the OD change curve. […] Curves (i) represent OD420 time course in the presence of (A) 0 nM; (◯) 1 nM; (□) 2 nM; (Δ) 4 nM; (⋄) 6 nM; and (●) 15 nM of the inhibitor with linker […] (SEQ. ID. NO. 103), at 37° C. […] represent OD420 time course in the presence of (◯) 0 nM; (□) 2 nM; (Δ) 4 nM; (⋄) 6 nM; (●) 8 nM; (▪) 10 nM; (▴) 12 nM; and (♦) 15 nM; of the inhibitor with linker […] (SEQ. ID. NO. 58) at 25° C. Curves (k) represent OD420 time course in the presence of (◯) 0 nM; (□) 0.5 nM; (Δ) 1 nM; (⋄) 2 nM; (●) 3 nM; (▪) 4 nM; (▴) 5 nM; and (♦) 6 nM; of the inhibitor with linker […] (SEQ. ID. NO. 105) at 37° C. Curves (I) represent OD420 time course in the presence of (◯) 0 nM; (□) 0.25 nM; (Δ) 0.5 nM; (⋄) 1 nM; (●) 1.5 nM; (▪) 2 nM; and (▴) 2.5 nM; of the inhibitor with linker […] (SEQ. ID. NO. 104) at 37° C. Curves (m) represent OD420 time course in the presence of (◯) 0 nM; (□) 2 nM; (Δ) 4 nM; (⋄) 6 nM; (●) 8 nM; (▴) 10 nM; and (A) 12 nM; of the inhibitor with linker […] (SEQ. ID. NO. 106) at 37° C. Curves (n) represent OD420 time course in the presence of (◯) 0 nM; (□) 1 nM; (Δ) 2 nM; (⋄) 3 nM; (●) 4 nM; (▪) 5 nM; (▴) 6 nM; and (♦) 7 nM; of the inhibitor with linker […] (SEQ. ID. NO. 107) at 37° C. Curves (o) represent OD420 time course in the presence of (◯) 0 nM; (□) 4 nM; and (Δ) 8 nM; of the inhibitor with linker GQSHNR (SEQ. ID. NO. 108) at 37° C.
Other experimental conditions were as used for the assays described in FIG. 2.
Clotting assays were carried out by use of the protocols described previously (DiMaio and others, 1990, 21698-21703; Witting and others, 1992, 737-743). The assay employs bovine plasma fibrinogen dissolved at 0.1% in 50 mM Tris-Cl, 100 mM NaCl, 0.1% PEG-8000 at pH 7.6 (i.e. the clotting buffer). Each assay mixture contained a certain concentration of the peptide, and the reaction was started by the addition of human thrombin to a final concentration of 0.6-1.2 nM. Optical absorbance increase at 420 nm caused by fibrin clot formation was measured at 25° C. or 37° C. using the Spectramax plate reader. The onset clotting time was determined as an intersection of the baseline and the extrapolated linear portion of the OD change curve. The concentration of a peptide needed to double the clotting time was defined as IC50 (DiMaio and others, 1990, 21698-21703). Kinetic amidolytic curves were obtained in clotting buffer at 25° C. using eight inhibitor concentrations and three to five concentrations of the chromogenic substrate S-2238 (Chromogenix) (DiMaio and others, 1990, 21698-21703). Inhibition constants were extracted from Lineweaver-Burk equation by using weighted linear regression. Errors in Ki determination were estimated by using Monte-Carlo sampling with 1-3% variance of the experimental points.

Under “IC50, nM (37° C.), 37° C.”, `CC[C@H](C)[C@H](NC(=O)[C@H](CCC(=O)O)NC(=O)[C@H](CCC(=O)O)NC(=O)[C@H](Cc1ccccc1)NC(=O)[C@H](CC(=O)O)NC(=O)CNC(=O)[C@H](CC(N)=O)NC(=O)[C@H](CO)NC(=O)[C@@H](NC(=O)[C@H](CCCCN)NC(=O)[C@H](CC(=O)O)NC(=O)[C@@H](NC(=O)[C@@H]1CCCN1C(=O)[C@@H](NC(=O)[C@H](CC(N)=O)NC(=O)[C@H](CC(C)C)NC(=O)[C@H](CC(=O)O)NC(=O)[C@H](CC(C)C)NC(=O)[C@@H](NC(=O)CNC(=O)[C@H]1CCCCN1C(=O)[C@H](CCCNC(=N)N)NS(=O)(=O)c1ccc(C(C)(C)C)cc1)[C@@H](C)O)[C@@H](C)O)C(C)C)[C@@H](C)O)C(=O)N1CCC[C@H]1C(=O)N[C@@H](CCC(=O)O)C(=O)N[C@@H](CCC(=O)O)C(=O)N[C@@H](Cc1ccc(O)cc1)C(=O)N[C@@H](CC(C)C)C(=O)N[C@@H](CCC(N)=O)C(=O)O` [P3181] registered a half-maximal inhibitory concentration (IC50) of 1.9 ± 0.2 nM.

Turning to `CC[C@H](C)[C@H](NC(=O)[C@H](CCC(=O)O)NC(=O)[C@H](CCC(=O)O)NC(=O)[C@H](Cc1ccccc1)NC(=O)[C@H](CC(=O)O)NC(=O)CNC(=O)[C@H](CO)NC(=O)CNC(=O)[C@H](CO)NC(=O)CNC(=O)[C@H](CO)NC(=O)CNC(=O)[C@H](CO)NC(=O)CNC(=O)[C@H](CO)NC(=O)CNC(=O)[C@H](CO)NC(=O)CNC(=O)[C@H](CO)NC(=O)CNC(=O)[C@H](CO)NC(=O)CNC(=O)[C@@H](N)CSSC[C@H](NC(=O)CNC(=O)[C@H]1CCCCN1C(=O)[C@H](CCCNC(=N)N)NS(=O)(=O)c1ccc(C(C)(C)C)cc1)C(=O)O)C(=O)N1CCC[C@H]1C(=O)N[C@@H](CCC(=O)O)C(=O)N[C@@H](CCC(=O)O)C(=O)N[C@@H](Cc1ccc(O)cc1)C(=O)N[C@@H](CC(C)C)C(=O)N[C@@H](CCC(N)=O)C(=O)O` [P3172-P3165], the IC50 (IC50, nM (37° C.), 37° C.) was found to be 1.1 ± 0.2 nM.

Take `CC[C@H](C)[C@H](NC(=O)[C@@H](NC(=O)[C@H](CC(C)C)NC(=O)[C@H](CO)NC(=O)[C@H](CCCCN)NC(=O)[C@H](CCCNC(=N)N)NC(=O)CNC(=O)[C@H]1CCCCN1C(=O)[C@H](CCCNC(=N)N)NS(=O)(=O)c1ccc(C(C)(C)C)cc1)[C@@H](C)O)C(=O)N[C@@H](Cc1ccc(O)cc1)C(=O)N[C@@H](C)C(=O)N[C@@H](CCC(N)=O)C(=O)N[C@H](C(=O)N[C@@H](CCC(N)=O)C(=O)N[C@@H](CCCCN)C(=O)NCC(=O)N[C@@H](CC(=O)O)C(=O)N[C@@H](Cc1ccccc1)C(=O)N[C@@H](CCC(=O)O)C(=O)N[C@@H](CCC(=O)O)C(=O)N[C@H](C(=O)N1CCC[C@H]1C(=O)N[C@@H](CCC(=O)O)C(=O)N[C@@H](CCC(=O)O)C(=O)N[C@@H](Cc1ccc(O)cc1)C(=O)N[C@@H](CC(C)C)C(=O)N[C@@H](CCC(N)=O)C(=O)O)[C@@H](C)CC)C(C)C` [P3291]: where the note is “25 nM inhibitor, 5 and 10 μM SAP-SH2, 25° C.”, the “Effect of SAP-SH2 on thrombin inhibition” value is “reversal of thrombin inhibition”. Also, half-maximal inhibition (IC50, nM (25° C.), 25° C.) (IC50) required 7 ± 1 nM.

`CC[C@H](C)[C@H](N)C(=O)N[C@@H](CCCNC(=N)N)C(=O)N[C@@H](Cc1ccccc1)C(=O)N[C@H](C(=O)N[C@@H](CC(=O)O)C(=O)NCC(=O)N[C@@H](C)C(=O)N[C@@H](CCCCN)C(=O)N[C@H](C(=O)N[C@H](C(=O)N[C@@H](CCSC)C(=O)N[C@H](C(=O)N[C@@H](CS)C(=O)N[C@@H](CO)C(=O)N[C@@H](C)C(=O)N[C@@H](CO)C(=O)NCC(=O)N[C@@H](CC(=O)O)C(=O)N[C@@H](Cc1ccccc1)C(=O)N[C@@H](CCC(=O)O)C(=O)N[C@@H](CCC(=O)O)C(=O)N[C@H](C(=O)N1CCC[C@H]1C(=O)N[C@@H](CCC(=O)O)C(=O)N[C@@H](CCC(=O)O)C(=O)N[C@@H](Cc1ccc(O)cc1)C(=O)N[C@@H](CC(C)C)C(=O)N[C@@H](CCC(N)=O)C(=O)O)[C@@H](C)CC)[C@@H](C)O)[C@@H](C)O)C(C)C)[C@@H](C)O` [mini-hirudin 3] displayed an IC50 (IC50, nM (37° C.), 37° C.) of 10 ± 1 nM.

`CC[C@H](C)[C@H](NC(=O)[C@H](CCC(=O)O)NC(=O)[C@H](CCC(=O)O)NC(=O)[C@H](Cc1ccccc1)NC(=O)[C@H](CC(=O)O)NC(=O)CNC(=O)[C@H](CC(=O)O)NC(=O)[C@H](CC(N)=O)NC(=O)[C@H](Cc1c[nH]cn1)NC(=O)[C@H](CO)NC(=O)[C@H](CCC(N)=O)NC(=O)[C@@H]1CCCN1C(=O)[C@H](CCCCN)NC(=O)[C@@H]1CCCN1C(=O)[C@@H](NC(=O)CNC(=O)[C@H](CCC(=O)O)NC(=O)CNC(=O)[C@H](CC(=O)O)NC(=O)[C@@H](NC(=O)[C@H](Cc1ccccc1)NC(=O)[C@H](CCCNC(=N)N)NC(=O)[C@@H](N)C(C)C)[C@@H](C)O)[C@@H](C)O)C(=O)N1CCC[C@H]1C(=O)N[C@@H](CCC(=O)O)C(=O)N[C@@H](CCC(=O)O)C(=O)N[C@@H](Cc1ccc(O)cc1)C(=O)N[C@@H](CC(C)C)C(=O)N[C@@H](CCC(N)=O)C(=O)O` [mini-hirudin 1] returned an IC50 (IC50, nM (37° C.), 37° C.) of 33 ± 3 nM.

In turn, `CC[C@H](C)[C@H](NC(=O)[C@H](CCC(=O)O)NC(=O)[C@H](CCC(=O)O)NC(=O)[C@H](Cc1ccccc1)NC(=O)[C@H](CC(=O)O)NC(=O)CNC(=O)[C@@H](NC(=O)[C@H](CC(=O)O)NC(=O)CNC(=O)[C@H](C)NC(=O)[C@H](CCC(N)=O)NC(=O)[C@H](CCCCN)NC(=O)[C@H](C)NC(=O)CNC(=O)CNC(=O)[C@H](CC(C)C)NC(=O)[C@H](Cc1c[nH]cn1)NC(=O)[C@H](Cc1c[nH]cn1)NC(=O)CNC(=O)[C@H]1CCCCN1C(=O)[C@H](CCCNC(=N)N)NS(=O)(=O)c1ccc(C(C)(C)C)cc1)C(C)C)C(=O)N1CCC[C@H]1C(=O)N[C@@H](CCC(=O)O)C(=O)N[C@@H](CCC(=O)O)C(=O)N[C@@H](Cc1ccc(O)cc1)C(=O)N[C@@H](CC(C)C)C(=O)N[C@@H](CCC(N)=O)C(=O)O` [P3234] displayed an IC50 (IC50, nM (37° C.), 37° C.) of 3.9 ± 0.8 nM.

For `CC[C@H](C)[C@H](N)C(=O)N[C@@H](CCCNC(=N)N)C(=O)N[C@@H](Cc1ccccc1)C(=O)N[C@H](C(=O)N[C@@H](CC(=O)O)C(=O)NCC(=O)N[C@@H](CCC(=O)O)C(=O)NCC(=O)N[C@H](C(=O)N1CCC[C@H]1C(=O)N[C@@H](CC(N)=O)C(=O)N1CCC[C@H]1C(=O)N[C@@H](CCC(=O)O)C(=O)N[C@@H](CO)C(=O)N[C@@H](Cc1c[nH]cn1)C(=O)N[C@@H](CC(N)=O)C(=O)N[C@@H](CC(N)=O)C(=O)NCC(=O)N[C@@H](CC(=O)O)C(=O)N[C@@H](Cc1ccccc1)C(=O)N[C@@H](CCC(=O)O)C(=O)N[C@@H](CCC(=O)O)C(=O)N[C@H](C(=O)N1CCC[C@H]1C(=O)N[C@@H](CCC(=O)O)C(=O)N[C@@H](CCC(=O)O)C(=O)N[C@@H](Cc1ccc(O)cc1)C(=O)N[C@@H](CC(C)C)C(=O)N[C@@H](CCC(N)=O)C(=O)O)[C@@H](C)CC)[C@@H](C)O)[C@@H](C)O` [mini-hirudin 2], where the note is “IC50, nM (37° C.), 37° C.”, the IC50 amounted to 14 ± 1 nM.

The record behind these values is patent US8063018B2, “Bivalent thrombin binding molecules comprising linkers” (National Research Council of Canada, priority 2004, dated 2011).
